Assay results as given in US20100204203A1, “Chemical Compounds 637: Pyridopyrimidinediones as PDE4 Inhibitors” (priority 2007, published 2010).

The compounds below were run against recombinant Human Phosphodiesterase B2 (PDE4B2) (Homo sapiens, UniProt Q07343) (assay: Human Phosphodiesterase B2 Radiometric Assay (yttrium silicate SPA beads, [3H]cyclic AMP)). Settings: recombinant human PDE4B2, radiometric SPA assay, 8 nM [3H]cyclic AMP; read-out: PDE4B2 pIC50 (converted).
Format: biochemical
Procedure, shortened: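 Compounds were preincubated 30 min at 30 °C with 0.1 mg/mL PDE4B2 in 50 mM HEPES pH 7.5, 8.3 mM MgCl2, 1.7 mM EGTA, 0.01% Brij 35. Then 8 nM [3H]cAMP was added for 20 min, stopped with yttrium silicate SPA beads plus 18 mM ZnSO4 capturing product 5′AMP; pIC50 by curve fitting.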

Sequence of recombinant Human Phosphodiesterase B2 (PDE4B2) (Q07343 1-564 isoform Q07343-2): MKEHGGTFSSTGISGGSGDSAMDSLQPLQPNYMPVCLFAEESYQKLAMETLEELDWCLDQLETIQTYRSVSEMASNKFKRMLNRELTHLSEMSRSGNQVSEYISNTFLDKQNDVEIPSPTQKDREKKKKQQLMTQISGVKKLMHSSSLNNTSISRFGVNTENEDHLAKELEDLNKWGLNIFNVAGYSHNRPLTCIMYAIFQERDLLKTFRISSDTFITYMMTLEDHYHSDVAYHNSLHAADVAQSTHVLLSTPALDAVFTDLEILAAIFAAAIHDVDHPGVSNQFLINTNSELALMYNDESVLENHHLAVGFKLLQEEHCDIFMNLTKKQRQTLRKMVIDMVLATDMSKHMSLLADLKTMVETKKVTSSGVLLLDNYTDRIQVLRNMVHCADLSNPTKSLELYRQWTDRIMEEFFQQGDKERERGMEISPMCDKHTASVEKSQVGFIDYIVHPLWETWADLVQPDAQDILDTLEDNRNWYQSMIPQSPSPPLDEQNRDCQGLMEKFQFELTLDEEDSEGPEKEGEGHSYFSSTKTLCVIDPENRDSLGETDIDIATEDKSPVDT

| Compound | IC50 |
| --- | --- |
| C[C@H](CO)N(C)Cc1cc(O)ccc1-c1cccc(-n2c(=O)n([C@H]3CC[C@@H](NCc4cn5cc(F)ccc5n4)CC3)c(=O)c3cc(F)cnc32)c1 [Example 319, 6-fluoro-3-(cis-4-{[(6-fluoroimidazo[1,2-a]pyridin-2-yl)methyl]amino}cyclohexyl)-1-(4′-hydroxy-2′-{[[(1R)-2-hydroxy-1-methylethyl](methyl)amino]methyl}biphenyl-3-yl)pyrido[2,3-d]pyrimidine-2,4(1H,3H)-dione] | 0.631 nM |
| C[C@@H](O)CN(C)Cc1cc(O)ccc1-c1cccc(-n2c(=O)n([C@H]3CC[C@@H](NCc4cn5cc(F)ccc5n4)CC3)c(=O)c3cc(F)cnc32)c1 [Example 320, 6-fluoro-3-(cis-4-{[(6-fluoroimidazo[1,2-c]pyridin-2-yl)methyl]amino}cyclohexyl)-1-(4′-hydroxy-2′-{[[(2R)-2-hydroxypropyl](methyl)amino]methyl}biphenyl-3-yl)pyrido[2,3-d]pyrimidine-2,4(1H,3H)-dione] | 0.2 nM |
| CN(Cc1cc(O)ccc1-c1cccc(-n2c(=O)n([C@H]3CC[C@@H](NCc4cn5cc(F)ccc5n4)CC3)c(=O)c3cc(F)cnc32)c1)C1(CO)CC1 [Example 321, 6-fluoro-3-(cis-4-{[(6-fluoroimidazo[1,2-a]pyridin-2-yl)methyl]amino}cyclohexyl)-1-(4′-hydroxy-2′-{[[1-(hydroxymethyl)cyclopropyl](methyl)amino]methyl}biphenyl-3-yl)pyrido[2,3-c]pyrimidine-2,4(1H,3H)-dione] | 0.1 nM |
| CN(Cc1cc(O)ccc1-c1cccc(-n2c(=O)n([C@H]3CC[C@@H](NCc4cn5cc(F)ccc5n4)CC3)c(=O)c3cc(F)cnc32)c1)CC1(O)CC1 [Example 322, 6-fluoro-3-(cis-4-{[(6-fluoroimidazo[1,2-c]pyridin-2-yl)methyl]amino}cyclohexyl)-1-(4′-hydroxy-2′-{[[(1-hydroxycyclopropyl)methyl](methyl)amino]methyl}biphenyl-3-yl)pyrido[2,3-d]pyrimidine-2,4(1H,3H)-dione] | 0.251 nM |
| CN(Cc1cc(O)ccc1-c1cccc(-n2c(=O)n([C@H]3CC[C@@H](NCc4cn5cc(F)ccc5n4)CC3)c(=O)c3cc(F)cnc32)c1)C1CC1 [Example 323, 1-(2′-{[cyclopropyl(methyl)amino]methyl}-4′-hydroxybiphenyl-3-yl)-6-fluoro-3-(cis-4-{[(6-fluoroimidazo[1,2-a]pyridin-2-yl)methyl]amino}cyclohexyl)pyrido[2,3-d]pyrimidine-2,4(1H,3H)-dione] | 0.251 nM |
| C[C@@H](CO)N(C)Cc1cc(O)ccc1-c1cccc(-n2c(=O)n([C@H]3CC[C@@H](NCc4cn5cc(F)ccc5n4)CC3)c(=O)c3cc(F)cnc32)c1 [Example 324, 6-fluoro-3-(cis-4-{[(6-fluoroimidazo[1,2-a]pyridin-2-yl)methyl]amino}cyclohexyl)-1-(4′-hydroxy-2′-{[[(1S)-2-hydroxy-1-methylethyl](methyl)amino]methyl}biphenyl-3-yl)pyrido[2,3-d]pyrimidine-2,4(1H,3H)-dione] | 0.501 nM |
| CN(Cc1cc(O)ccc1-c1cccc(-n2c(=O)n([C@H]3CC[C@@H](NCc4cn5cc(F)ccc5n4)CC3)c(=O)c3cc(F)cnc32)c1)CC1CC1 [Example 325] | 2 nM |
| O=c1c2cc(F)cnc2n(-c2cccc(-c3ccc(O)cc3CN3CC[C@@H](O)C3)c2)c(=O)n1[C@H]1CC[C@@H](NCc2cn3cc(F)ccc3n2)CC1 [Example 326, 6-fluoro-3-(cis-4-{[(6-fluoroimidazo[1,2-a]pyridin-2-yl)methyl]amino}cyclohexyl)-1-(4′-hydroxy-2′-{[(3R)-3-hydroxypyrrolidin-1-yl]methyl}biphenyl-3-yl)pyrido[2,3-d]pyrimidine-2,4(1H,3H)-dione] | 0.398 nM |
| COCCN(C)Cc1cc(O)ccc1-c1cccc(-n2c(=O)n([C@H]3CC[C@@H](NCc4cn5cc(F)ccc5n4)CC3)c(=O)c3cc(F)cnc32)c1 [Example 327, 6-fluoro-3-(cis-4-{[(6-fluoroimidazo[1,2-a]pyridin-2-yl)methyl]amino}cyclohexyl)-1-(4′-hydroxy-2′-{[(2-methoxyethyl)(methyl)amino]methyl}biphenyl-3-yl)pyrido[2,3-d]pyrimidine-2,4(1H,3H)-dione] | 0.251 nM |
| CC(=O)N1CCN(Cc2cc(O)ccc2-c2cccc(-n3c(=O)n([C@H]4CC[C@@H](NCc5cn6cc(F)ccc6n5)CC4)c(=O)c4cc(F)cnc43)c2)CC1 [Example 328, 1-{2′-[(4-acetylpiperazin-1-yl)methyl]-4′-hydroxybiphenyl-3-yl}-6-fluoro-3-(cis-4-{[(6-fluoroimidazo[1,2-a]pyridin-2-yl)methyl]amino}cyclohexyl)pyrido [2,3-d]pyrimidine-2,4(1H,3H)-dione] | 0.01 nM |
| CN(CCO)Cc1cc(O)ccc1-c1cccc(-n2c(=O)n([C@H]3CC[C@@H](NCc4cn5cc(F)ccc5n4)CC3)c(=O)c3cc(F)cnc32)c1 [Example 329, 6-fluoro-3-(cis-4-{[(6-fluoroimidazo[1,2-a]pyridin-2-yl)methyl]amino}cyclohexyl)-1-(4′-hydroxy-2′-{[(2-hydroxyethyl) (methyl)amino]methyl}biphenyl-3-yl)pyrido[2,3-d]pyrimidine-2,4(1H,3H)-dione] | 0.126 nM |
| O=c1c2cc(F)cnc2n(-c2cccc(-c3ccc(O)cc3CN3CCC[C@H]3CO)c2)c(=O)n1[C@H]1CC[C@@H](NCc2cn3cc(F)ccc3n2)CC1 [Example 330, 6-fluoro-3-(cis-4-{[(6-fluoroimidazo[1,2-a]pyridin-2-yl)methyl]amino}cyclohexyl)-1-(4′-hydroxy-2′-{[(2S)-2-(hydroxymethyl)pyrrolidin-1-yl]methyl}biphenyl-3-yl)pyrido[2,3-d]pyrimidine-2,4(1H,3H)-dione] | 2.51 nM |
| O=c1c2cc(F)cnc2n(-c2cccc(-c3ccc(O)cc3CN3CC[C@H](O)C3)c2)c(=O)n1[C@H]1CC[C@@H](NCc2cn3cc(F)ccc3n2)CC1 [Example 331, 6-fluoro-3-(cis-4-{[(6-fluoroimidazo[1,2-a]pyridin-2-yl)methyl]amino}cyclohexyl)-1-(4′-hydroxy-2′-{[(3S)-3-hydroxypyrrolidin-1-yl]methyl}biphenyl-3-yl)pyrido[2,3-d]pyrimidine-2,4(1H,3H)-dione] | 0.398 nM |
| O=c1c2cc(F)cnc2n(-c2cccc(-c3ccc(O)cc3CN3CCC[C@@H]3CO)c2)c(=O)n1[C@H]1CC[C@@H](NCc2cn3cc(F)ccc3n2)CC1 [Example 332, 6-fluoro-3-(cis-4-{[(6-fluoroimidazo[1,2-a]pyridin-2-yl)methyl]amino}cyclohexyl)-1-(4′-hydroxy-2′-{[(2R)-2-(hydroxymethyl)pyrrolidin-1-yl]methyl}biphenyl-3-yl)pyrido[2,3-d]pyrimidine-2,4(1H,3H)-dione] | 0.0501 nM |
| O=C(CN1CCCCC1)N[C@H]1CC[C@@H](n2c(=O)c3cc(F)cnc3n(-c3cccc(-c4ccc(O)cc4CN4CCOCC4)c3)c2=O)CC1 [Example 333, N-{cis-4-[6-fluoro-1-[4′-hydroxy-2′-(morpholin-4-ylmethyl)biphenyl-3-yl]-2,4-dioxo-1,4-dihydropyrido[2,3-d]pyrimidin-3(2H)-yl]cyclohexyl}-2-piperidin-1-ylacetamide] | 2 nM |
| Cc1ccc2nc(CN[C@H]3CC[C@@H](n4c(=O)c5cc(F)cnc5n(-c5cccc(-c6ccc(O)cc6CN6CCOCC6)c5)c4=O)CC3)cn2c1 [Example 334, 6-fluoro-1-[4′-hydroxy-2′-(morpholin-4-ylmethyl)biphenyl-3-yl]-3-(cis-4-{[(6-methylimidazo[1,2-a]pyridin-2-yl)methyl]amino}cyclohexyl)pyrido[2,3-d]pyrimidine-2,4 (1H,3H)-dione] | 0.0631 nM |
| Cc1cccc2nc(CN[C@H]3CC[C@@H](n4c(=O)c5cc(F)cnc5n(-c5cccc(-c6ccc(O)cc6CN6CCOCC6)c5)c4=O)CC3)cn12 [Example 335, 6-fluoro-1-[4′-hydroxy-2′-(morpholin-4-ylmethyl)biphenyl-3-yl]-3-(cis-4-{[(5-methylimidazo[1,2-c]pyridin-2-yl)methyl]amino}cyclohexyl)pyrido[2,3-d]pyrimidine-2,4(1H,3H)-dione] | 0.00794 nM |
| Cc1c(CN[C@H]2CC[C@@H](n3c(=O)c4cc(F)cnc4n(-c4cccc(-c5ccc(O)cc5CN5CCOCC5)c4)c3=O)CC2)nc2ccccn12 [Example 336, 6-fluoro-1-[4′-hydroxy-2′-(morpholin-4-ylmethyl)biphenyl-3-yl]-3-(cis-4-{[(3-methylimidazo[1,2-a]pyridin-2-yl)methyl]amino}cyclohexyl)pyrido[2,3-d]pyrimidine-2,4(1H,3H)-dione] | 0.0316 nM |
| O=c1c2cc(F)cnc2n(-c2cccc(-c3cc(O)ccc3CN3CCOCC3)c2)c(=O)n1[C@H]1CC[C@@H](NCc2cn3cc(F)ccc3n2)CC1 [Example 337, 6-fluoro-3-(cis-4-{[(6-fluoroimidazo[1,2-a]pyridin-2-yl)methyl]amino}cyclohexyl)-1-[5′-hydroxy-2′-(morpholin-4-ylmethyl)biphenyl-3-yl]pyrido[2,3-d]pyrimidine-2,4(1H,3H)-dione] | 0.1 nM |
| O=c1c2cc(F)cnc2n(-c2cccc(-c3ccc(CN4CCCOCC4)cc3)c2)c(=O)n1[C@H]1CC[C@@H](NCc2cn3cc(F)ccc3n2)CC1 [Example 338, 6-fluoro-3-(cis-4-{[(6-fluoroimidazo[1,2-a]pyridin-2-yl)methyl]amino}cyclohexyl)-1-[4′-(1,4-oxazepan-4-ylmethyl)biphenyl-3-yl]pyrido[2,3-d]pyrimidine-2,4(1H,3H)-dione] | 0.251 nM |
| O=c1c2cc(F)cnc2n(-c2cccc(-c3ccc(CN4CCCOCC4)cc3)c2)c(=O)n1[C@H]1CC[C@@H](N(Cc2cn3cc(F)ccc3n2)Cc2cn3cc(F)ccc3n2)CC1 [Example 339, 3-(cis-4-{bis[(6-fluoroimidazo[1,2-a]pyridin-2-yl)methyl]amino}cyclohexyl)-6-fluoro-1-[4′-(1,4-oxazepan-4-ylmethyl)biphenyl-3-yl]pyrido[2,3-d]pyrimidine-2,4(1H,3H)-dione] | 0.0398 nM |
